# Data: patent US20240294551A1 (AMGEN INC., priority 2022, published 2024)
# Where two headings read alike, the source gives them in different places.
# Legend:
# [1] = target: His-tagged KRAS G12D protein (Homo sapiens (Human), UniProt P01116, G12D); assay: KRAS G12D TR-FRET Assay; assay type: binding
# Procedure, shortened: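 His-tagged KRAS G12D (diluted to 20 nM in pH 7.4 HEPES buffer with 10 mM MgCl2 and 10 μM GDP) was preincubated with titrated compound for 30 min at room temperature. Biotinylated KRPep-2d peptide (diluted to 20 nM) was then added for 1 h, and displacement was monitored by TR-FRET.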
# [2] = target: GDP-bound KRAS protein (aa 1-169), containing both G12D and C118A amino acid substitutions (Homo sapiens (Human), UniProt P01116, C118A/G12D); assay: KRAS G12D Coupled Nucleotide Exchange Assay; assay type: biochemical
# Chain of GDP-bound KRAS protein (aa 1-169), containing both G12D and C118A amino acid substitutions (P01116 other isoform, or with tags, fused parts or gaps G12D/C118A): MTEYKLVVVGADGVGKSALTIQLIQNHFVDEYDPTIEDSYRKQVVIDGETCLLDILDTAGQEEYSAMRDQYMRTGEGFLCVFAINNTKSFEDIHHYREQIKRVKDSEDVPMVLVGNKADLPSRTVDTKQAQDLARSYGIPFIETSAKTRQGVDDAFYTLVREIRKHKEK
# [3] = system: Phosphorylation of ERK1/2 in AsPC-1 cells; assay: Phospho-ERK1/2 MSD Assay; assay type: cell-based, human
# Procedure, shortened: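 Read-out: MSD electrochemiluminescent detection of phosphorylated ERK1/2 in whole-cell lysates, fitted to a 4-parameter logistic curve for IC50. Prior to lysis, AsPC-1 cells (25,000 per well) received a 2 h compound dose-response at 37 °C.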
# [4] = read-out: KRAS G12D Binding IC50
# [5] = read-out: KRAS G12D Coupled Exchange IC50
# [6] = Homo sapiens, ASPC1, 2 h, read-out: 2 h p-ERK (AsPC-1 cells), IC50
# Chain of His-tagged KRAS G12D protein (P01116 other isoform, or with tags, fused parts or gaps G12D): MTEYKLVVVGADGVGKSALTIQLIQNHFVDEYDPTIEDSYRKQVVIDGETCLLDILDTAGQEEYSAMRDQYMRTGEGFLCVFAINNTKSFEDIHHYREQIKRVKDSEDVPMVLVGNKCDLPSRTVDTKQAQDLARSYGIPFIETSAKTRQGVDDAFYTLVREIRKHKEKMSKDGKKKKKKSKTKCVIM
Structure (SMILES),"IC50 [1, 4] [nM]","IC50 [2, 5] [nM]","IC50 [3, 6] [nM]","IC50 ([3]; 2 h, read-out: 2 h p-ERK (AsPC-1 cells), IC50) [nM]","IC50 ([1]; TR-FRET, read-out: KRAS G12D Binding) [nM]","IC50 ([2]; 2 hours compound pre-incubation, read-out: KRAS G12D Coupled Exchange) [nM]","IC50 ([3]; Homo sapiens, ASPC1, 2 h, read-out: 2 h p-ERK (AsPC-1 cells)) [nM]"
"O=C1OCCc2cccc3cccc(c23)-c2ncc3c(nc(OC[C@@]45CCCN4C[C@H](F)C5)nc3c2F)N2CCOC[C@H](C2)O1 [Example 201, (16S)-32-fluoro-8-(((2R,7aS)-2-fluorotetrahydro-1H-pyrrolo[1,2-a]pyrrol-7a(5H)-yl)methoxy)-14,17,19-trioxa-3,7,9,11-tetraazahexacyclo[20.7.1.1~2,6~.1~11,16~.0~5,10~.0~26,30~]dotriaconta-1(29),2(32),3,5,7,9,22,24,26(30),27-decaen-18-one]",9,8,171,,,,
O=C1OCCCc2c(Cl)cc3[nH]ncc3c2-c2ncc3c(nc(OC[C@@]45CCCN4C[C@H](F)C5)nc3c2F)N2C[C@H]3C[C@H]3[C@H](C2)O1 (racemic) [Example 179],9,5,78.8,,,,
"Cc1cc2[nH]ncc2c2c1CCOC(=O)OC1CC3(CCCN(C3)c3nc(OC[C@@H]4CCCN4C)nc4c(F)c-2ncc34)C1 [Example 205, (1R,3S)-32-fluoro-10-methyl-24-(((2S)-1-methyl-2-pyrrolidinyl)methoxy)-4,6-dioxa-13,14,19,23,25,27-hexaazaheptacyclo[25.3.1.1~1,3~.1~18,22~.0~9,17~.0~12,16~.0~21,26~]tritriaconta-9,11,14,16,18(32),19,21,23,25-nonaen-5-one]",11,6,36.1,,,,
"CN1CCC(Oc2nc3c4cnc(c(F)c4n2)-c2c(c(Cl)cc4[nH]ncc24)CCCOC(=O)O[C@@H]2COCCN3C2)CC1.O=C(O)C(F)(F)F [Example 370, (26S)-18-Chloro-32-fluoro-4-((1-methyl-4-piperidinyl)oxy)-23,25,28-trioxa-1,3,5,9,14,15-hexaazahexacyclo[24.4.1.1˜6,10˜.0˜2,7˜.0˜11,19˜.0˜12,16˜]dotriaconta-2,4,6,8,10(32),11,13,16,18-nonaen-24-one trifluoroacetate]",36,18,708,,,,
"O=C1CCCCc2c(Cl)cccc2-c2ncc3c(nc(OC[C@@]45CCCN4C[C@H](F)C5)nc3c2F)N2CC[C@H]3CCN1[C@H]3C2 [Example 162, (25S,29R)-15-chloro-30-fluoro-4-(((2R,7aS)-2-fluorotetrahydro-1H-pyrrolo[1,2-a]pyrrol-7a(5H)-yl)methoxy)-1,3,5,9,22-pentaazahexacyclo[20.5.2.1~6,10~.0~2,7~.0~11,16~.0~25,29~]triaconta-2,4,6,8,10(30),11,13,15-octaen-21-one]",37,20,1830,,,,
Fc1c2ncc3c(nc(OC[C@@]45CCCN4C[C@H](F)C5)nc13)N1CCC[C@H](C1)Cn1ncc(n1)[C@@H]1C[C@@H]1c1c(Cl)cc3[nH]ncc3c1-2 (mixture of isomers) [Example 383],,,,,13,8,75.4
O=C1CC2CCCN(C2)c2nc(OC[C@@]34CCCN3C[C@H](F)C4)nc3c(F)c(ncc23)-c2cccc3cccc(c23)CCO1 (stereo partly drawn) [Example 88],19,11,1580,,,,
"O=C1COCCCc2c(Cl)cc3[nH]ncc3c2-c2ncc3c(nc(OC[C@@]45CCCN4C[C@H](F)C5)nc3c2F)N2CCC[C@H](C2)O1 [Example 37, (18R)-9-Chloro-31-fluoro-25-(((2R,7aS)-2-fluorotetrahydro-1H-pyrrolo[1,2-a]pyrrol-7a(5H)-yl)methoxy)-14,17-dioxa-5,6,22,24,26,30-hexaazahexacyclo[25.3.1.1˜18,22˜.0˜2,10˜.0˜3,7˜.0˜23,28˜]dotriaconta-1(31),2,4,7,9,23,25,27,29-nonaen-16-one bis(2,2,2-trifluoroacetate)]",5,4,58,,,,
"O=C1OC/C=C/c2c(Cl)cc3[nH]ncc3c2-c2ncc3c(nc(OC[C@@]45CCCN4C[C@H](F)C5)nc3c2F)N2CCC[C@H](C2)O1 (single isomer, unassigned) [Example 116]",17,12,270,,,,
"CN1C(=O)OCCCc2c(Cl)cc3[nH]ncc3c2-c2ncc3c(nc(OC[C@@]45CCCN4C[C@H](F)C5)nc3c2F)N2CCC[C@@H]1C2 [Example 74, (17R)-9-Chloro-30-fluoro-24-(((2R,7aS)-2-fluorotetrahydro-1H-pyrrolo[1,2-a]pyrrol-7a(5H)-yl)methoxy)-16-methyl-14-oxa-5,6,16,21,23,25,29-heptaazahexacyclo[24.3.1.1˜17,21˜.0˜2,10˜.0˜3,7˜.0˜22,27˜]hentriaconta-1(30),2,4,7,9,22,24,26,28-nonaen-15-one]",3,2,16,,,,

# Other lines, results leading:
"IC50 [1, 4] [nM]","IC50 [2, 5] [nM]","IC50 [3, 6] [nM]","IC50 ([3]; 2 h, read-out: 2 h p-ERK (AsPC-1 cells), IC50) [nM]","IC50 ([1]; TR-FRET, read-out: KRAS G12D Binding) [nM]","IC50 ([2]; 2 hours compound pre-incubation, read-out: KRAS G12D Coupled Exchange) [nM]","IC50 ([3]; Homo sapiens, ASPC1, 2 h, read-out: 2 h p-ERK (AsPC-1 cells)) [nM]",Structure (SMILES)
366,156,589,,,,,"C[C@]12C[C@]3(CN(CCO3)c3nc(OC[C@@]45CCCN4C[C@H](F)C5)nc4c(F)c(ncc34)-c3c(c(Cl)cc4[nH]ncc34)CCOC(=O)O1)C2 [Example 322, (1S,3S)-10-chloro-32-fluoro-24-(((2R,7aS)-2-fluorotetrahydro-1H-pyrrolo[1,2-a]pyrrol-7a(5H)-yl)methoxy)-3-methyl-4,6,30-trioxa-13,14,19,23,25,27-hexaazaheptacyclo[25.3.1.1~1,3~.1~18,22~.0~9,17~.0~12,16~.0~21,26~]tritriaconta-9,11,14,16,18(32),19,21,23,25-nonaen-5-one]"
19,10,369,,,,,Cc1cc2[nH]ncc2c2c1CCOC(=O)OC[C@@H]1CCN(C1)c1nc(OC[C@@]34CCCN3C[C@H](F)C4)nc3c(F)c-2ncc13 [Example 219]
19,14,1380,,,,,Cc1cc2[nH]ncc2c2c1CCCC(F)C(=O)N[C@@H]1COCCN(C1)c1nc(OC[C@@]34CCCN3C[C@H](F)C4)nc3c(F)c-2ncc13 (mixture of isomers) [Example 55]
20,11,2320,,,,,"Cc1cc2[nH]ncc2c2c1CCCCC(=O)N1CC3(CCCN(C3)c3nc(OC[C@@]45CCCN4C[C@H](F)C5)nc4c(F)c-2ncc34)C1 [Example 56, 32-fluoro-24-(((2R,7aS)-2-fluorotetrahydro-1H-pyrrolo[1,2-a]pyrrol-7a(5H)-yl)methoxy)-10-methyl-3,13,14,19,23,25,27-heptaazaheptacyclo[25.3.1.1~1,3~.1~18,22~.0~9,17~.0~12,16~.0~21,26~]tritriaconta-9,11,14,16,18(32),19,21,23,25-nonaen-4-one]"
19,12,346,,,,,Cc1cc2[nH]ncc2c2c1[C@H]1C[C@@H]1COC(=O)O[C@@H]1CCCN(C1)c1nc(OC[C@@]34CCCN3C[C@H](F)C4)nc3c(F)c-2ncc13 (racemic) [Example 114]
38,24,368,,,,,"Fc1c2ncc3c(nc(OC[C@@]45CCCN4C[C@H](F)C5)nc13)N1CCOC[C@]3(C1)C[C@H](C3)OCCCCc1c(Cl)cc3[nH]ncc3c1-2 [Example 264, (1R,3R)-10-chloro-33-fluoro-24-(((2R,7aS)-2-fluorotetrahydro-1H-pyrrolo[1,2-a]pyrrol-7a(5H)-yl)methoxy)-4,30-dioxa-13,14,19,23,25,27-hexaazaheptacyclo[25.4.1.1~1,3~.1~18,22~.0~9,17~.0~12,16~.0~21,26~]tetratriaconta-9,11,14,16,18(33),19,21,23,25-nonaene]"
79,34,70,,,,,"O=C1CCCCc2c(Cl)cc3[nH]ncc3c2-c2ncc3c(nc(OC[C@@]45CCCN4C[C@H](F)C5)nc3c2F)N2CC[C@@H]3CCN1[C@@H]3C2 [Example 61, (28R,32S)-18-chloro-33-fluoro-4-(((2R,7aS)-2-fluorotetrahydro-1H-pyrrolo[1,2-a]pyrrol-7a(5H)-yl)methoxy)-1,3,5,9,14,15,25-heptaazaheptacyclo[23.5.2.1~6,10~.0~2,7~.0~11,19~.0~12,16~.0~28,32~]tritriaconta-2,4,6,8,10(33),11,13,16,18-nonaen-24-one]"
27,12,342,,,,,Fc1c2ncc3c(nc(OC[C@@]45CCCN4C[C@H](F)C5)nc13)N1CC(COCCCCc3c(Cl)cc4[nH]ncc4c3-2)CC(F)(F)C1 (stereo partly drawn) [Example 229]
20,6,,278,,,,"Cc1cc2[nH]ncc2c2c1CCCn1ncc(n1)C1CCCN(C1)c1nc(OC[C@@]34CCCN3C[C@H](F)C4)nc3c(F)c-2ncc13 (stereo partly drawn) [Example 158, 31-Fluoro-25-(((2R,7aS)-2-fluorotetrahydro-1H-pyrrolo[1,2-a]pyrrol-7a(5H)-yl)methoxy)-9-methyl-5,6,14,15,22,24,26,30,33-nonaazaheptacyclo[25.3.1.1˜14,17˜.1˜18,22.0˜2,10˜.0˜3,7˜.0˜23,28˜]tritriaconta-1(31),2,4,7,9,15,17(33),23,25,27,29-undecaene]"
4,3,27.8,,,,,Cc1cc2[nH]ncc2c2c1CCOC(=O)OC[C@H]1CN(CCO1)c1nc(OC[C@@]34CCCN3C[C@H](F)C4)nc3c(F)c-2ncc13 [Example 218]
38,36,2460,,,,,Cc1cc2[nH]ncc2c2c1CCCOC(=O)O[C@@H]1C[C@H](F)CN(C1)c1nc(OC[C@@]34CCCN3C[C@H](F)C4)nc3c(F)c-2ncc13 (racemic) [Example 95]
